Assays:
persian speedwell [1] = experiment: Test Example 4: herbicidal effect by soil treatment (Table 19, symbol R); type: in vivo, Persian speedwell (Veronica persica); conditions: amount of applied herbicide 320 g/ha
Outline: (§1)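 Three weeks of greenhouse growth at 25° C. to 30° C. followed a uniform surface spray of water-diluted emulsion at a predetermined herbicide amount. Seeds had been sown beforehand under about 1.5 cm of sterilized diluvial soil. Grading followed criteria set out in an earlier test.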

barnyard grass [2] = experiment: Test Example 3: herbicidal effect by foliage application, Wagner pot (Table 18, symbol H); type: in vivo, barnyard grass (Echinochloa crus-galli)
Outline: (§2)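 Plants were sown in alluvial soil held under 0.1–0.5 cm standing water and grown 14 days in a greenhouse at 25–30 °C. An emulsifiable formulation, water-diluted to the set dose, was then sprayed onto the foliage, and effects were scored three weeks later using previously defined criteria.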

rice flat sedge = experiment: Test Example 3: herbicidal effect by foliage application, Wagner pot (Table 18, symbol E); type: in vivo, rice flat sedge (Cyperus iria)
Outline: as §2

chickweed [3] = experiment: Test Example 5: herbicidal effect by foliage application, plastic box (Table 20, symbol P); type: in vivo, common chickweed (Stellaria media)
Outline: (§3)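 Plants sown in sterilized diluvial soil and grown 14 days in a greenhouse at 25° C to 30° C, then sprayed on the foliage with the compound's emulsion diluted in water to a predetermined herbicide amount. Injury to weeds and crops scored three weeks after application on a visual rating scale.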

chickweed [4] = experiment: Test Example 4: herbicidal effect by soil treatment (Table 19, symbol P); type: in vivo, common chickweed (Stellaria media); conditions: amount of applied herbicide 320 g/ha
Outline: as §1

green foxtail [5] = experiment: Test Example 4: herbicidal effect by soil treatment (Table 19, symbol G); type: in vivo, green foxtail (Setaria viridis); conditions: amount of applied herbicide 320 g/ha
Outline: as §1

windgrass [6] = experiment: Test Example 4: herbicidal effect by soil treatment (Table 19, symbol L); type: in vivo, windgrass (Apera spica-venti); conditions: amount of applied herbicide 320 g/ha
Outline: as §1

barnyard grass [7] = experiment: Test Example 5: herbicidal effect by foliage application, plastic box (Table 20, symbol H); type: in vivo, barnyard grass (Echinochloa crus-galli)
Outline: as §3

southern crabgrass [8] = experiment: Test Example 5: herbicidal effect by foliage application, plastic box (Table 20, symbol F); type: in vivo, southern crabgrass (Digitaria ciliaris)
Outline: as §3

blackgrass = experiment: Test Example 5: herbicidal effect by foliage application, plastic box (Table 20, symbol J); type: in vivo, blackgrass (Alopecurus myosuroides)
Outline: as §3

barnyard grass [9] = experiment: Test Example 4: herbicidal effect by soil treatment (Table 19, symbol H); type: in vivo, barnyard grass (Echinochloa crus-galli); conditions: amount of applied herbicide 320 g/ha
Outline: as §1

southern crabgrass [10] = experiment: Test Example 4: herbicidal effect by soil treatment (Table 19, symbol F); type: in vivo, southern crabgrass (Digitaria ciliaris); conditions: amount of applied herbicide 320 g/ha
Outline: as §1

velvetleaf [11] = experiment: Test Example 5: herbicidal effect by foliage application, plastic box (Table 20, symbol M); type: in vivo, velvetleaf (Abutilon theophrasti)
Outline: as §3

Italian ryegrass [12] = experiment: Test Example 4: herbicidal effect by soil treatment (Table 19, symbol K); type: in vivo, Italian ryegrass (Lolium multiflorum); conditions: amount of applied herbicide 320 g/ha
Outline: as §1

windgrass [13] = experiment: Test Example 5: herbicidal effect by foliage application, plastic box (Table 20, symbol L); type: in vivo, windgrass (Apera spica-venti)
Outline: as §3

green foxtail [14] = experiment: Test Example 5: herbicidal effect by foliage application, plastic box (Table 20, symbol G); type: in vivo, green foxtail (Setaria viridis)
Outline: as §3

redroot pigweed [15] = experiment: Test Example 5: herbicidal effect by foliage application, plastic box (Table 20, symbol N); type: in vivo, redroot pigweed (Amaranthus retroflexus)
Outline: as §3

persian speedwell [16] = experiment: Test Example 5: herbicidal effect by foliage application, plastic box (Table 20, symbol R); type: in vivo, Persian speedwell (Veronica persica)
Outline: as §3

Italian ryegrass [17] = experiment: Test Example 5: herbicidal effect by foliage application, plastic box (Table 20, symbol K); type: in vivo, Italian ryegrass (Lolium multiflorum)
Outline: as §3

lambsquarters [18] = experiment: Test Example 5: herbicidal effect by foliage application, plastic box (Table 20, symbol O); type: in vivo, lambsquarters (Chenopodium album)
Outline: as §3

wild oat [19] = experiment: Test Example 5: herbicidal effect by foliage application, plastic box (Table 20, symbol I); type: in vivo, wild oat (Avena fatua)
Outline: as §3

Chinese sprangletop = experiment: Test Example 3: herbicidal effect by foliage application, Wagner pot (Table 18, symbol D); type: in vivo, chinese sprangletop (Leptochloa chinensis)
Outline: as §2

redroot pigweed [20] = experiment: Test Example 4: herbicidal effect by soil treatment (Table 19, symbol N); type: in vivo, redroot pigweed (Amaranthus retroflexus); conditions: amount of applied herbicide 320 g/ha
Outline: as §1

velvetleaf [21] = experiment: Test Example 4: herbicidal effect by soil treatment (Table 19, symbol M); type: in vivo, velvetleaf (Abutilon theophrasti); conditions: amount of applied herbicide 320 g/ha
Outline: as §1

wild oat [22] = experiment: Test Example 4: herbicidal effect by soil treatment (Table 19, symbol I); type: in vivo, wild oat (Avena fatua); conditions: amount of applied herbicide 320 g/ha
Outline: as §1

lambsquarters [23] = experiment: Test Example 4: herbicidal effect by soil treatment (Table 19, symbol O); type: in vivo, lambsquarters (Chenopodium album); conditions: amount of applied herbicide 320 g/ha
Outline: as §1

[24] = amount of applied herbicide 320 g/ha, foliage application after 14-day growth, evaluated three weeks after application
[25] = amount of applied herbicide 320 g/ha
[26] = foliage application, 320 g/ha, evaluated 3 weeks after application

Cc1nn(C)c(=O)c(-c2c(-c3ccc4c(c3)OCCO4)sc3cc(F)c(F)cc23)c1O [5-037]
R: persian speedwell, herbicidal effect grade (persian speedwell [1]): 5 (Herbicidal rate of 90% or more (almost completely withered)) | herbicidal effect on barnyard grass (H) (barnyard grass [2]; 320 g/ha): 4 (Herbicidal rate of 70% or more and less than 90%) | herbicidal effect on rice flat sedge (E) (rice flat sedge; 320 g/ha): 5 (Herbicidal rate of 90% or more (almost completely withered)) | Herbicidal effect by foliage application, P: chickweed (chickweed [3]; [24]): 5 (Herbicidal rate of 90% or more (almost completely withered)) | P: chickweed, herbicidal effect grade (chickweed [4]): 0 (Herbicidal rate of 5% or less (almost no effect)) | G: green foxtail, herbicidal effect grade (green foxtail [5]): 0 (Herbicidal rate of 5% or less (almost no effect)) | L: windgrass, herbicidal effect grade (windgrass [6]): 0 (Herbicidal rate of 5% or less (almost no effect)) | Herbicidal effect by foliage application, H: barnyard grass (barnyard grass [7]; [24]): 0 (Herbicidal rate of 5% or less (almost no effect)) | Herbicidal effect by foliage application, F: southern crabgrass (southern crabgrass [8]; [24]): 0 (Herbicidal rate of 5% or less (almost no effect)) | Herbicidal effect by foliage application, J: blackgrass (blackgrass; [24]): 0 (Herbicidal rate of 5% or less (almost no effect)) | H: barnyard grass, herbicidal effect grade (barnyard grass [9]): 0 (Herbicidal rate of 5% or less (almost no effect)) | F: southern crabgrass, herbicidal effect grade (southern crabgrass [10]): 0 (Herbicidal rate of 5% or less (almost no effect)) | Herbicidal effect by foliage application, M: velvetleaf (velvetleaf [11]; [24]): 5 (Herbicidal rate of 90% or more (almost completely withered)) | K: Italian ryegrass, herbicidal effect grade (Italian ryegrass [12]): 0 (Herbicidal rate of 5% or less (almost no effect)) | Herbicidal effect by foliage application, L: windgrass (windgrass [13]; [24]): 0 (Herbicidal rate of 5% or less (almost no effect)) | Herbicidal effect by foliage application, G: green foxtail (green foxtail [14]; [24]): 0 (Herbicidal rate of 5% or less (almost no effect)) | Herbicidal effect by foliage application, N: redroot pigweed (redroot pigweed [15]; [24]): 5 (Herbicidal rate of 90% or more (almost completely withered)) | Herbicidal effect by foliage application, R: persian speedwell (persian speedwell [16]; [24]): 5 (Herbicidal rate of 90% or more (almost completely withered)) | Herbicidal effect by foliage application, K: Italian ryegrass (Italian ryegrass [17]; [24]): 0 (Herbicidal rate of 5% or less (almost no effect)) | Herbicidal effect by foliage application, O: lambsquarters (lambsquarters [18]; [24]): 5 (Herbicidal rate of 90% or more (almost completely withered)) | Herbicidal effect by foliage application, I: wild oat (wild oat [19]; [24]): 0 (Herbicidal rate of 5% or less (almost no effect)) | herbicidal effect on Chinese sprangletop (D) (Chinese sprangletop; 320 g/ha): 4 (Herbicidal rate of 70% or more and less than 90%) | N: redroot pigweed, herbicidal effect grade (redroot pigweed [20]): 4 (Herbicidal rate of 70% or more and less than 90%) | M: velvetleaf, herbicidal effect grade (velvetleaf [21]): 5 (Herbicidal rate of 90% or more (almost completely withered)) | I: wild oat, herbicidal effect grade (wild oat [22]): 0 (Herbicidal rate of 5% or less (almost no effect)) | O: lambsquarters, herbicidal effect grade (lambsquarters [23]): 5 (Herbicidal rate of 90% or more (almost completely withered))

COCc1ccc(-c2oc3ccc(C)cc3c2-c2c(O)c(C)nn(C)c2=O)cc1 [9-061]
R: persian speedwell, herbicidal effect grade (persian speedwell [1]): 5 (Herbicidal rate of 90% or more (almost completely withered)) | Herbicidal effect on H (barnyard grass), foliage application (barnyard grass [2]; [25]): 5 (Herbicidal rate of 90% or more (almost completely withered)) | Herbicidal effect on E (rice flat sedge), foliage application (rice flat sedge; [25]): 5 (Herbicidal rate of 90% or more (almost completely withered)) | P (chickweed) herbicidal effect grade (chickweed [3]; [26]): 5 (Herbicidal rate of 90% or more (almost completely withered)) | P: chickweed, herbicidal effect grade (chickweed [4]): 4 (Herbicidal rate of 70% or more and less than 90%) | G: green foxtail, herbicidal effect grade (green foxtail [5]): 5 (Herbicidal rate of 90% or more (almost completely withered)) | L: windgrass, herbicidal effect grade (windgrass [6]): 0 (Herbicidal rate of 5% or less (almost no effect)) | H (barnyard grass) herbicidal effect grade (barnyard grass [7]; [26]): 5 (Herbicidal rate of 90% or more (almost completely withered)) | F (southern crabgrass) herbicidal effect grade (southern crabgrass [8]; [26]): 5 (Herbicidal rate of 90% or more (almost completely withered)) | J (blackgrass) herbicidal effect grade (blackgrass; [26]): 5 (Herbicidal rate of 90% or more (almost completely withered)) | H: barnyard grass, herbicidal effect grade (barnyard grass [9]): 5 (Herbicidal rate of 90% or more (almost completely withered)) | F: southern crabgrass, herbicidal effect grade (southern crabgrass [10]): 5 (Herbicidal rate of 90% or more (almost completely withered)) | M (velvetleaf) herbicidal effect grade (velvetleaf [11]; [26]): 5 (Herbicidal rate of 90% or more (almost completely withered)) | K: Italian ryegrass, herbicidal effect grade (Italian ryegrass [12]): 5 (Herbicidal rate of 90% or more (almost completely withered)) | L (windgrass) herbicidal effect grade (windgrass [13]; [26]): 4 (Herbicidal rate of 70% or more and less than 90%) | G (green foxtail) herbicidal effect grade (green foxtail [14]; [26]): 5 (Herbicidal rate of 90% or more (almost completely withered)) | N (redroot pigweed) herbicidal effect grade (redroot pigweed [15]; [26]): 5 (Herbicidal rate of 90% or more (almost completely withered)) | R (persian speedwell) herbicidal effect grade (persian speedwell [16]; [26]): 5 (Herbicidal rate of 90% or more (almost completely withered)) | K (Italian ryegrass) herbicidal effect grade (Italian ryegrass [17]; [26]): 5 (Herbicidal rate of 90% or more (almost completely withered)) | O (lambsquarters) herbicidal effect grade (lambsquarters [18]; [26]): 5 (Herbicidal rate of 90% or more (almost completely withered)) | I (wild oat) herbicidal effect grade (wild oat [19]; [26]): 3 (Herbicidal rate of 40% or more and less than 70%) | Herbicidal effect on D (Chinese sprangletop), foliage application (Chinese sprangletop; [25]): 4 (Herbicidal rate of 70% or more and less than 90%) | N: redroot pigweed, herbicidal effect grade (redroot pigweed [20]): 5 (Herbicidal rate of 90% or more (almost completely withered)) | M: velvetleaf, herbicidal effect grade (velvetleaf [21]): 4 (Herbicidal rate of 70% or more and less than 90%) | I: wild oat, herbicidal effect grade (wild oat [22]): 2 (Herbicidal rate of 20% or more and less than 40%) | O: lambsquarters, herbicidal effect grade (lambsquarters [23]): 5 (Herbicidal rate of 90% or more (almost completely withered))
